Measurements published in patent US9423396B2, “Bodipy structure fluorescence probes for diverse biological applications” (National University of Singapore, priority 2011, dated 2016).

Columns and labels:
[1] = Spectroscopic measurements (absorption, emission, quantum yield, extinction coefficient); type: physicochemical
[2] = tested on: Beta TC-6 cells; assay: High throughput cell-based screening on acinar, Alpha TC-1 and Beta TC-6 cells; design: species or system mouse; conditions: 1 μM, 1 hr to 48 hours, 384-well plates
Method: To discover pancreatic islet selective probes, we expanded the other two types of BODIPY library generated from the original GY (Glucagon Yellow) structure. We started with high throughput cell-based screening using mouse acinar cells composed of exocrine tissue, mouse Alpha TC-1 cells and Beta TC-6 cells composed of endocrine pancreas islets. Those three different types of cells were prepared side by side in 384-well plates and incubated with 1 μM of BODIPY compounds for different incubation times ranging from 1 hr to 48 hours. The fluorescence images were acquired on an automated imaging microscope system ImageXpress Micro™. The fluorescence intensity of the stained cells was analyzed using MetaXpress® image processing software.

[3] = BDNCA library, difference emission minus absorption
[4] = BDNCA library, extinction coefficient; in M-1 cm-1 (unit assumed)
[5] = BDNCA library, fluorescence emission
[6] = absorption maximum, BDNCA library
[7] = difference of emission and absorption maxima
[8] = extinction coefficient, BDNCA library; in M-1 cm-1 (unit assumed)
[9] = fluorescence emission maximum, BDNCA library

Structure (SMILES): CC1=CC(/C=C/c2cc(C)c(OCc3ccccc3)c(C)c2)=[N+]2C1=C(c1ccc(NC(=O)CCl)cc1)c1cccn1[B-]2(F)F [BDNCA-16]
- Qunt. Yield ([1]; BDNCA library): 0.13
- Abs ([1]; BDNCA library, absorption): 562 nm
- Flu-Abs [1, 3]: 23
- ε [1, 4]: 55,469
- Flu [1, 5]: 585
- staining of alpha cells and beta cells compared with acinar cells [2]: stained either both alpha cells and beta cells or beta cells only as compared with acinar cells

Structure (SMILES): CC1=CC(/C=C/c2ccc3c(c2)OCO3)=[N+]2C1=C(c1ccc(NC(=O)CCl)cc1)c1cccn1[B-]2(F)F [BDNCA-139]
- Qunt. Yield ([1]; BDNCA library): 0.09
- Abs ([1]; BDNCA library, absorption): 568 nm
- Flu-Abs [1, 3]: 39
- ε [1, 4]: 35,423
- Flu [1, 5]: 607

Structure (SMILES): CCOc1c(/C=C/C2=[N+]3C(=C(c4ccc(NC(=O)CCl)cc4)c4cccn4[B-]3(F)F)C(C)=C2)cccc1OC [BDNCA-320]
- Abs [1, 6]: 557 nm
- Flu-Abs [1, 7]: 24
- ε [1, 8]: 59,588
- Flu [1, 9]: 581
- Qunt. Yield ([1]; quantum yield, BDNCA library): 0.10

Structure (SMILES): CC1=CC(/C=C/c2cccc(Oc3ccc(Cl)c(Cl)c3)c2)=[N+]2C1=C(c1ccc(NC(=O)CCl)cc1)c1cccn1[B-]2(F)F [BDNCA-299]
- Qunt. Yield ([1]; BDNCA library): 0.09
- Abs ([1]; BDNCA library, absorption): 556 nm
- Flu-Abs [1, 3]: 19
- ε [1, 4]: 49,703
- Flu [1, 5]: 575

Structure (SMILES): CC1=CC(/C=C/c2ccccc2C)=[N+]2C1=C(c1ccc(NC(=O)CCl)cc1)c1cccn1[B-]2(F)F [BDNCA-143]
- Qunt. Yield ([1]; BDNCA library): 0.13
- Abs ([1]; BDNCA library, absorption): 555 nm
- Flu-Abs [1, 3]: 22
- ε [1, 4]: 50,801
- Flu [1, 5]: 577

Structure (SMILES): Cc1cc(/C=C/c2ccc(-c3ccccc3)cc2)n2c1C(c1ccc(NC(=O)CCl)cc1)=C1C=CC=[N+]1[B-]2(F)F [BDNCA-5]
- Qunt. Yield ([1]; BDNCA library): 0.09
- Abs ([1]; BDNCA library, absorption): 566 nm
- Flu-Abs [1, 3]: 23
- ε [1, 4]: 39,542
- Flu [1, 5]: 589
- staining of alpha cells and beta cells compared with acinar cells [2]: stained either both alpha cells and beta cells or beta cells only as compared with acinar cells

Structure (SMILES): CC1=CC(/C=C/c2ccc(-c3ccc(Br)cc3)o2)=[N+]2C1=C(c1ccc(NC(=O)CCl)cc1)c1cccn1[B-]2(F)F [BDNCA-428]
- Abs [1, 6]: 506 nm
- Flu-Abs [1, 7]: 151
- ε [1, 8]: 17,025
- Flu [1, 9]: 657
- Qunt. Yield ([1]; quantum yield, BDNCA library): 0.02

Structure (SMILES): CCOc1cccc(/C=C/C2=[N+]3C(=C(c4ccc(NC(=O)CCl)cc4)c4cccn4[B-]3(F)F)C(C)=C2)c1O [BDNCA-126]
- Qunt. Yield ([1]; BDNCA library): 0.01
- Abs ([1]; BDNCA library, absorption): 563 nm
- Flu-Abs [1, 3]: 15
- ε [1, 4]: 37,071
- Flu [1, 5]: 578

Structure (SMILES): COc1cccc(Oc2ccccc2/C=C/C2=[N+]3C(=C(c4ccc(NC(=O)CCl)cc4)c4cccn4[B-]3(F)F)C(C)=C2)c1 [BDNCA-298]
- Qunt. Yield ([1]; BDNCA library): 0.14
- Abs ([1]; BDNCA library, absorption): 558 nm
- Flu-Abs [1, 3]: 23
- ε [1, 4]: 67,277
- Flu [1, 5]: 581

Structure (SMILES): CCOC(OCC)c1ccc(/C=C/C2=[N+]3C(=C(c4ccc(NC(=O)CCl)cc4)c4cccn4[B-]3(F)F)C(C)=C2)cc1 [BDNCA-49]
- Qunt. Yield ([1]; BDNCA library): 0.03
- Abs ([1]; BDNCA library, absorption): 564 nm
- Flu-Abs [1, 3]: 17
- ε [1, 4]: 20,046
- Flu [1, 5]: 581

Structure (SMILES): CC1=CC(/C=C/c2[nH]cnc2C)=[N+]2C1=C(c1ccc(NC(=O)CCl)cc1)c1cccn1[B-]2(F)F [BDNCA-134]
- Qunt. Yield ([1]; BDNCA library): weak
- Abs ([1]; BDNCA library, absorption): 566 nm
- ε [1, 4]: 12,082
- Flu [1, 5]: weak

Structure (SMILES): CC1=CC(/C=C/c2cccc(I)c2)=[N+]2C1=C(c1ccc(NC(=O)CCl)cc1)c1cccn1[B-]2(F)F [BDNCA-303]
- Qunt. Yield ([1]; BDNCA library): 0.12
- Abs ([1]; BDNCA library, absorption): 556 nm
- Flu-Abs [1, 3]: 19
- ε [1, 4]: 70,847
- Flu [1, 5]: 575

Structure (SMILES): COc1ccc(/C=C/c2cc(C)c3n2[B-](F)(F)[N+]2=CC=CC2=C3c2ccc(NC(=O)CCl)cc2)c(Br)c1O [BDNCA-261]
- Qunt. Yield ([1]; BDNCA library): 0.01
- Abs ([1]; BDNCA library, absorption): 567 nm
- Flu-Abs [1, 3]: 29
- ε [1, 4]: 49,703
- Flu [1, 5]: 596

Structure (SMILES): CC1=CC(/C=C/C=C(c2ccccc2)c2ccccc2)=[N+]2C1=C(c1ccc(NC(=O)CCl)cc1)c1cccn1[B-]2(F)F [BDNCA-85]
- Qunt. Yield ([1]; BDNCA library): 0.08
- Abs ([1]; BDNCA library, absorption): 583 nm
- Flu-Abs [1, 3]: 31
- ε [1, 4]: 49,977
- Flu [1, 5]: 614

Structure (SMILES): CSc1ccccc1/C=C/C1=[N+]2C(=C(c3ccc(NC(=O)CCl)cc3)c3cccn3[B-]2(F)F)C(C)=C1 [BDNCA-333]
- Abs [1, 6]: 560 nm
- Flu-Abs [1, 7]: 26
- ε [1, 8]: 63,707
- Flu [1, 9]: 586
- Qunt. Yield ([1]; quantum yield, BDNCA library): 0.12

Structure (SMILES): CC1=CC(/C=C/c2ccc(Br)s2)=[N+]2C1=C(c1ccc(NC(=O)CCl)cc1)c1cccn1[B-]2(F)F [BDNCA-100]
- Qunt. Yield ([1]; BDNCA library): 0.10
- Abs ([1]; BDNCA library, absorption): 574 nm
- Flu-Abs [1, 3]: 23
- ε [1, 4]: 48,879
- Flu [1, 5]: 597

Structure (SMILES): Cc1ccc(/C=C/c2cc(C)c3n2[B-](F)(F)[N+]2=CC=CC2=C3c2ccc(NC(=O)CCl)cc2)s1 [BDNCA-236]
- Qunt. Yield ([1]; BDNCA library): 0.11
- Abs ([1]; BDNCA library, absorption): 577 nm
- Flu-Abs [1, 3]: 31
- ε [1, 4]: 72,220
- Flu [1, 5]: 608

Structure (SMILES): CC1=CC(/C=C/c2ccc(O)c([N+](=O)[O-])c2)=[N+]2C1=C(c1ccc(NC(=O)CCl)cc1)c1cccn1[B-]2(F)F [BDNCA-131]
- Qunt. Yield ([1]; BDNCA library): weak
- Abs ([1]; BDNCA library, absorption): 643 nm
- ε [1, 4]: 18,124
- Flu [1, 5]: weak

Structure (SMILES): CC1=CC(/C=C/c2c(Cl)ccc(C)c2F)=[N+]2C1=C(c1ccc(NC(=O)CCl)cc1)c1cccn1[B-]2(F)F [BDNCA-246]
- Qunt. Yield ([1]; BDNCA library): 0.09
- Abs ([1]; BDNCA library, absorption): 554 nm
- Flu-Abs [1, 3]: 19
- ε [1, 4]: 43,387
- Flu [1, 5]: 573
